Experimental data published in patent US20240390340A1 (INCYTE CORPORATION, priority 2023, published 2024).
pIC50: −log10 of the molar value. Read-outs that look alike come from different tables or passages of the source.

Legend:
Caco-2 cells = assay: Caco2 assay (Papp A-B); assay type: in vitro ADME; conditions: test compound 50 μM, 120 min, 37° C.
Method: Caco-2 cells are grown at 37° C. in an atmosphere of 5% CO2 in DMEM growth medium supplemented with 10% (v/v) fetal bovine serum, 1% (v/v) nonessential amino acids, penicillin (100 U/mL), and streptomycin (100 μg/mL). Confluent cell monolayers are subcultured every 7 days or 4 days for Caco-2 by treatment with 0.05% trypsin containing […]. Caco-2 cells are seeded in 96-well Transwell plates. The seeding density for Caco-2 cells is 14,000 cells/well. DMEM growth medium is replaced every other day after seeding. Cell monolayers are used for transport assays between 22 and 25 days for Caco-2 cells.
Cell culture medium is removed and replaced with HBSS. To measure the TEER, the HBSS is added into the donor compartment (apical side) and receiver compartment (basolateral side). The TEER is measured by using a REMS Autosampler to ensure the integrity of the cell monolayers. Caco-2 cell monolayers with TEER values 300 Ω·cm^2 are used for transport experiments. To determine the Papp in the absorptive direction (A-B), solution of test compound (50 μM) in HBSS is added to the donor compartment (apical side), while HBSS solution with 4% BSA is added to the receiver compartment (basolateral side). The apical volume was 0.075 mL, and the basolateral volume is 0.25 mL. The incubation period is 120 min. at 37° C. in an atmosphere of 5% CO2. At the end of the incubation period, samples from the donor and receiver sides are removed and an equal volume of MeCN is added for protein precipitation. The supernatants are collected after centrifugation (3000 rpm, Allegra X-14R Centrifuge from Beckman Coulter, Indianapolis, IN) for LCMS analysis. The permeability value is determined according to the equation:
[formula] • where the flux rate (F, mass/time) is calculated from the slope of cumulative amounts of compound of interest on the receiver side, SA is the surface area of the cell membrane, VD is the donor volume, and MD is the initial amount of the solution in the donor chamber.
The symbol “+” indicates a Caco-2 value of ≤0.5, “++” indicates a Caco-2 value of >0.5 but ≤1; and “+++” indicates a Caco-2 value of >1. “NA” indicates IC50 not available.

KRAS G12V = KRAS G12V (Homo sapiens, UniProt P01116, G12V); assay: GDP-GTP exchange assay (bodipy-GDP/GppNHp, SOS1), KRAS G12V; assay type: biochemical
KRAS G12V, sequence (P01116 1-188 isoform P01116-2 G12V): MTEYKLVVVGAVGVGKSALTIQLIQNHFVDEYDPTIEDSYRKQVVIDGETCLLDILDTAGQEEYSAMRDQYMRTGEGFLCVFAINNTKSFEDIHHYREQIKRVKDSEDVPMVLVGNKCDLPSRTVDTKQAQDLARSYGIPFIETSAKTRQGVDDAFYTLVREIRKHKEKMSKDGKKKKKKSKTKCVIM

KRAS G12D = KRAS G12D (Homo sapiens, UniProt P01116, G12D); assay: GDP-GTP exchange assay (bodipy-GDP/GppNHp, SOS1), KRAS G12D; assay type: biochemical
KRAS G12D, sequence (P01116 1-188 isoform P01116-2 G12D): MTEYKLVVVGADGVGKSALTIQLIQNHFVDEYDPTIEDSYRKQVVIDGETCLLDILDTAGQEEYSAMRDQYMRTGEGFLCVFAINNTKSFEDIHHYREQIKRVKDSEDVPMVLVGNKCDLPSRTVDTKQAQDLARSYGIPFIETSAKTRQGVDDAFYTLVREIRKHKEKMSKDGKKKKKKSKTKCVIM

[1] = Table H, column G12V, for compounds isolated as several atropisomers/diastereoisomers the value for the most potent isomer is quoted, read-out: KRAS G12V exchange assay IC50
[2] = Table H, column G12D, for compounds isolated as several atropisomers/diastereoisomers the value for the most potent isomer is quoted, read-out: KRAS G12D exchange assay IC50

Caco-2 (Caco-2 cells)	pIC50 (KRAS G12V; [1])	pIC50 (KRAS G12D; [2])	pIC50 (KRAS G12V; KRAS G12V mutant, value for the most potent isomer quoted for certain compounds, read-out: G12V (KRAS G12V exchange assay IC50))	pIC50 (KRAS G12D; bodipy-loaded KRAS G12D 2.5 nM, 4 h pre-incubation, value for the most potent isomer quoted for certain compounds, read-out: G12D (KRAS G12D exchange assay IC50))	Structure (SMILES)
+++ (a Caco-2 value of >1)	–	–	≥ 7.00	≥ 7.00	CC[C@@H]1[C@@H](Oc2cc(OC)ncc2F)C[C@H](c2cc3c([C@@H](C)O)nc4c(F)c(-c5cccc(Cl)c5Cl)c(CCC#N)cc4c3n2[C@H]2[C@H]3CN[C@@H]2C3)N1C(=O)C1CC1 [Example 82, 3-(1-((1R,4R,5S)-2-Azabicyclo[2.1.1]hexan-5-yl)-2-((2R,4S,5R)-1-(cyclopropanecarbonyl)-5-ethyl-4-((5-fluoro-2-methoxypyridin-4-yl)oxy)pyrrolidin-2-yl)-7-(2,3-dichlorophenyl)-6-fluoro-4-((R)-1-hydroxyethyl)-1H-pyrrolo[3,2-c]quinolin-8-yl)propanenitrile]
+ (a Caco-2 value of ≤0.5)	≥ 7.00	≥ 7.00	–	–	Cc1nc2c(F)c(-c3cccc(Cl)c3Cl)c(CCC#N)cc2c2c1cc([C@H]1C[C@H](Oc3ccc(C#N)cn3)CN1C(=O)C1CC1)n2[C@H]1[C@H]2CN[C@@H]1C2 [Example 60, 6-(((3S,5R)-5-(1-((1R,4R,5S)-2-Azabicyclo[2.1.1]hexan-5-yl)-8-(2-cyanoethyl)-7-(2,3-dichlorophenyl)-6-fluoro-4-methyl-1H-pyrrolo[3,2-c]quinolin-2-yl)-1-(cyclopropanecarbonyl)pyrrolidin-3-yl)oxy)nicotinonitrile]
+ (a Caco-2 value of ≤0.5)	≥ 7.00	≥ 7.00	–	–	Cc1nc2c(F)c(-c3cccc(Cl)c3Cl)c(CCC#N)cc2c2c1cc([C@H]1C[C@H](Oc3cnn(C)c3C(F)F)CN1C(=O)C1CC1)n2[C@H]1[C@H]2CN[C@@H]1C2 [Example 47, 3-(1-((1R,4R,5S)-2-Azabicyclo[2.1.1]hexan-5-yl)-2-((2R,4S)-1-(cyclopropanecarbonyl)-4-((5-(difluoromethyl)-1-methyl-1H-pyrazol-4-yl)oxy)pyrrolidin-2-yl)-7-(2,3-dichlorophenyl)-6-fluoro-4-methyl-1H-pyrrolo[3,2-c]quinolin-8-yl)propanenitrile]
++ (a Caco-2 value of >0.5 but ≤1)	≥ 7.00	≥ 7.00	–	–	COc1ccc(O[C@H]2C[C@H](c3cc4c([C@@H](C)O)nc5c(F)c(-c6cccc(Cl)c6Cl)c(CCC#N)cc5c4n3[C@H]3[C@H]4CN[C@@H]3C4)N(C(=O)C3CC3)C2)cn1 [Example 76, 3-(1-((1R,4R,5S)-2-Azabicyclo[2.1.1]hexan-5-yl)-2-((2R,4S)-1-(cyclopropanecarbonyl)-4-((6-methoxypyridin-3-yl)oxy)pyrrolidin-2-yl)-7-(2,3-dichlorophenyl)-6-fluoro-4-((R)-1-hydroxyethyl)-1H-pyrrolo[3,2-c]quinolin-8-yl)propanenitrile]
+ (a Caco-2 value of ≤0.5)	≥ 7.00	≥ 7.00	–	–	Cc1nc2c(F)c(-c3cccc(Cl)c3Cl)c(CCC#N)cc2c2c1cc([C@H]1C[C@H](Oc3cccc(C#N)c3)CN1C(=O)C1CC1)n2[C@H]1[C@H]2CN[C@@H]1C2 [Example 45, 3-(((3S,5R)-5-(1-((1R,4R,5S)-2-Azabicyclo[2.1.1]hexan-5-yl)-8-(2-cyanoethyl)-7-(2,3-dichlorophenyl)-6-fluoro-4-methyl-1H-pyrrolo[3,2-c]quinolin-2-yl)-1-(cyclopropanecarbonyl)pyrrolidin-3-yl)oxy)benzonitrile]

The next lines start with the compound.

Structure (SMILES)	Caco-2 (Caco-2 cells)	pIC50 (KRAS G12V; [1])	pIC50 (KRAS G12D; [2])	pIC50 (KRAS G12V; KRAS G12V mutant, value for the most potent isomer quoted for certain compounds, read-out: G12V (KRAS G12V exchange assay IC50))	pIC50 (KRAS G12D; bodipy-loaded KRAS G12D 2.5 nM, 4 h pre-incubation, value for the most potent isomer quoted for certain compounds, read-out: G12D (KRAS G12D exchange assay IC50))
CC(O)c1nc2c(F)c(-c3cccc(Cl)c3Cl)c(CCC#N)cc2c2c1cc([C@H]1C[C@H](OCc3ccc(F)cc3C#N)CN1C(=O)C1(C)CC1)n2[C@H]1[C@H]2CN[C@@H]1C2 (stereo partly drawn) [Example 35, 2-((((3S,5R)-5-(1-((1R,4R,5S)-2-Azabicyclo[2.1.1]hexan-5-yl)-8-(2-cyanoethyl)-7-(2,3-dichlorophenyl)-6-fluoro-4-(1-hydroxyethyl)-1H-pyrrolo[3,2-c]quinolin-2-yl)-1-(1-methylcyclopropane-1-carbonyl)pyrrolidin-3-yl)oxy)methyl)-5-fluorobenzonitrile]	++ (a Caco-2 value of >0.5 but ≤1)	≥ 7.00	≥ 7.00	–	–
CN(C)C(=O)c1ccc(-c2nc3c(F)c(-c4cccc(Cl)c4Cl)c(CCC#N)cc3c3c2cc([C@H]2C[C@H](OCc4c(F)cccc4F)CN2C(=O)C2CC2)n3[C@H]2[C@H]3CN[C@@H]2C3)cn1 [Example 26]	+ (a Caco-2 value of ≤0.5)	≥ 7.00	≥ 7.00	–	–
COc1cccc(O[C@H]2C[C@H](c3cc4c(C)nc5c(F)c(-c6cccc(Cl)c6Cl)c(CCC#N)cc5c4n3[C@H]3[C@H]4CN[C@@H]3C4)N(C(=O)C3CC3)C2)c1 [Example 44, 3-(1-((1R,4R,5S)-2-Azabicyclo[2.1.1]hexan-5-yl)-2-((2R,4S)-1-(cyclopropanecarbonyl)-4-(3-methoxyphenoxy)pyrrolidin-2-yl)-7-(2,3-dichlorophenyl)-6-fluoro-4-methyl-1H-pyrrolo[3,2-c]quinolin-8-yl)propanenitrile]	+ (a Caco-2 value of ≤0.5)	≥ 7.00	≥ 7.00	–	–
Cc1csnc1CO[C@H]1C[C@H](c2cc3c(-c4ccc(C(C)(C)O)nc4)nc4c(F)c(-c5cccc(Cl)c5Cl)c(CCC#N)cc4c3n2[C@H]2[C@H]3CN[C@@H]2C3)N(C(=O)C2CC2)C1 [Example 25]	+ (a Caco-2 value of ≤0.5)	≥ 7.00	≥ 7.00	–	–
COc1cc(O[C@H]2C[C@H](c3cc4c(C(C)O)nc5c(F)c(-c6cccc(Cl)c6Cl)c(CCC#N)cc5c4n3[C@H]3[C@H]4CN[C@@H]3C4)N(C(=O)C3CC3)C2)ccn1 (stereo partly drawn) [Example 2, 3-(1-((1R,4R,5S)-2-Azabicyclo[2.1.1]hexan-5-yl)-2-((2R,4S)-1-(cyclopropanecarbonyl)-4-((2-methoxypyridin-4-yl)oxy)pyrrolidin-2-yl)-7-(2,3-dichlorophenyl)-6-fluoro-4-(1-hydroxyethyl)-1H-pyrrolo[3,2-c]quinolin-8-yl)propanenitrile]	+++ (a Caco-2 value of >1)	≥ 7.00	≥ 7.00	–	–
Cc1nc2c(F)c(-c3cccc(Cl)c3Cl)c(CCC#N)cc2c2c1cc([C@H]1C[C@H](OCc3nccs3)C3(CC3)N1C(=O)C1CC1)n2[C@H]1[C@H]2CN[C@@H]1C2 [Example 31]	+ (a Caco-2 value of ≤0.5)	≥ 7.00	≥ 7.00	–	–
COc1ncccc1O[C@H]1C[C@H](c2cc3c(C)nc4c(F)c(-c5cccc(Cl)c5Cl)c(CCC#N)cc4c3n2[C@H]2[C@H]3CN[C@@H]2C3)N(C(=O)C2CC2)C1 [Example 1, 3-(1-((1R,4R,5S)-2-Azabicyclo[2.1.1]hexan-5-yl)-2-((2R,4S)-1-(cyclopropanecarbonyl)-4-((2-methoxypyridin-3-yl)oxy)pyrrolidin-2-yl)-7-(2,3-dichlorophenyl)-6-fluoro-4-methyl-1H-pyrrolo[3,2-c]quinolin-8-yl)propanenitrile]	+++ (a Caco-2 value of >1)	≥ 7.00	≥ 7.00	–	–
[2H]C([2H])([2H])O[C@H]1CC[C@@H]1O[C@H]1C[C@H](c2cc3c(C)nc4c(F)c(-c5cccc(Cl)c5Cl)c(CCC#N)cc4c3n2[C@H]2[C@H]3CN[C@@H]2C3)N(C(=O)C2CC2)C1 (stereo in doubt) [Example 80, trans-3-(1-((1R,4R,5S)-2-Azabicyclo[2.1.1]hexan-5-yl)-2-((2R,4S)-1-(cyclopropanecarbonyl)-4-(2-(methoxy-d3)cyclobutoxy)pyrrolidin-2-yl)-7-(2,3-dichlorophenyl)-6-fluoro-4-methyl-1H-pyrrolo[3,2-c]quinolin-8-yl)propanenitrile]	++ (a Caco-2 value of >0.5 but ≤1)	≥ 7.00	≥ 7.00	–	–
